Test results taken from PubChem BioAssay AID1963977 (Molecular Pharmacology Branch, DTP, NCI, 2024).

Tested on: 624824-186-R-J3-PDC multicell spheroids, viability
Assay: Anticancer human tumor 624824-186-R-J3-PDC patient-derived colon adenocarcinoma cell line growth inhibition [PI3K]
Conditions: for IC50: curve of first compound; for viability, T/C: stronger effect = lower value
Summary of the method: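 Tumor cells were combined with HUVEC and MSCs into spheroids, then dosed with PI3K-inhibitor combinations over half-log ranges capped near clinical Cmax or 10 microM.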

[1] = second compound 0.0316 µM, first compound 0.000316 µM
[2] = second compound 0.0316 µM, first compound 0.001 µM
[3] = second compound 0.0316 µM, first compound 0.00316 µM
[4] = second compound 0.0316 µM, first compound 0.01 µM
[5] = second compound 0.0316 µM, first compound 0.0316 µM
[6] = second compound 0.0316 µM, first compound 0.1 µM
[7] = second compound 0.1 µM, first compound 0.000316 µM
[8] = second compound 0.1 µM, first compound 0.001 µM
[9] = second compound 0.1 µM, first compound 0.00316 µM
[10] = second compound 0.1 µM, first compound 0.01 µM
[11] = second compound 0.1 µM, first compound 0.0316 µM
[12] = second compound 0.1 µM, first compound 0.1 µM
[13] = second compound 0.316 µM, first compound 0.000316 µM
[14] = second compound 0.316 µM, first compound 0.001 µM
[15] = second compound 0.316 µM, first compound 0.00316 µM
[16] = second compound 0.316 µM, first compound 0.01 µM
[17] = second compound 0.316 µM, first compound 0.0316 µM
[18] = second compound 0.316 µM, first compound 0.1 µM
[19] = second compound 1 µM, first compound 0.000316 µM
[20] = second compound 1 µM, first compound 0.001 µM
[21] = second compound 1 µM, first compound 0.00316 µM
[22] = second compound 1 µM, first compound 0.01 µM
[23] = second compound 1 µM, first compound 0.0316 µM
[24] = second compound 1 µM, first compound 0.1 µM
[25] = second compound 3.16 µM, first compound 0.000316 µM
[26] = second compound 3.16 µM, first compound 0.001 µM
[27] = second compound 3.16 µM, first compound 0.00316 µM
[28] = second compound 3.16 µM, first compound 0.01 µM
[29] = second compound 3.16 µM, first compound 0.0316 µM
[30] = second compound 3.16 µM, first compound 0.1 µM
[31] = second compound 10 µM, first compound 0.000316 µM
[32] = second compound 10 µM, first compound 0.001 µM
[33] = second compound 10 µM, first compound 0.00316 µM
[34] = second compound 10 µM, first compound 0.01 µM
[35] = second compound 10 µM, first compound 0.0316 µM
[36] = second compound 10 µM, first compound 0.1 µM
[37] = second compound 0.0316 µM, first compound 0.316 µM
[38] = second compound 0.0316 µM, first compound 1 µM
[39] = second compound 0.0316 µM, first compound 3.16 µM
[40] = second compound 0.0316 µM, first compound 10 µM
[41] = second compound 0.1 µM, first compound 0.316 µM
[42] = second compound 0.1 µM, first compound 1 µM
[43] = second compound 0.1 µM, first compound 3.16 µM
[44] = second compound 0.1 µM, first compound 10 µM
[45] = second compound 0.316 µM, first compound 0.316 µM
[46] = second compound 0.316 µM, first compound 1 µM
[47] = second compound 0.316 µM, first compound 3.16 µM
[48] = second compound 0.316 µM, first compound 10 µM
[49] = second compound 1 µM, first compound 0.316 µM
[50] = second compound 1 µM, first compound 1 µM
[51] = second compound 1 µM, first compound 3.16 µM
[52] = second compound 1 µM, first compound 10 µM
[53] = second compound 3.16 µM, first compound 0.316 µM
[54] = second compound 3.16 µM, first compound 1 µM
[55] = second compound 3.16 µM, first compound 3.16 µM
[56] = second compound 3.16 µM, first compound 10 µM
[57] = second compound 10 µM, first compound 0.316 µM
[58] = second compound 10 µM, first compound 1 µM
[59] = second compound 10 µM, first compound 3.16 µM
[60] = second compound 10 µM, first compound 10 µM
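Further: spheroids exposed to agents for seven days before luminescence read.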
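Wherever viability, T/C is given: luminescent signal used as a stand-in for spheroid viability; percent viability relative to DMSO vehicle control wells taken as 100%.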

CC(=O)c1c(C)c2cnc(Nc3ccc(N4CCNCC4)cn3)nc2n(C2CCCC2)c1=O + Cc1nc(NC(=O)N2CCCC2C(N)=O)sc1-c1ccnc(C(C)(C)C(F)(F)F)c1
IC50 (second compound 0.0316 µM): > 0.1 µM
IC50 (second compound 0.1 µM): > 0.1 µM
IC50 (second compound 0.316 µM): > 0.1 µM
IC50 (second compound 1 µM): > 0.1 µM
IC50 (second compound 3.16 µM): > 0.1 µM
IC50 (second compound 10 µM): 0.0639 µM
viability, T/C [1]: 109%
viability, T/C [2]: 102%
viability, T/C [3]: 119%
viability, T/C [4]: 99.5%
viability, T/C [5]: 112%
viability, T/C [6]: 101%
viability, T/C [7]: 97.3%
viability, T/C [8]: 104%
viability, T/C [9]: 113%
viability, T/C [10]: 103%
viability, T/C [11]: 107%
viability, T/C [12]: 106%
viability, T/C [13]: 112%
viability, T/C [14]: 107%
viability, T/C [15]: 114%
viability, T/C [16]: 110%
viability, T/C [17]: 104%
viability, T/C [18]: 109%
viability, T/C [19]: 106%
viability, T/C [20]: 99.1%
viability, T/C [21]: 109%
viability, T/C [22]: 94.8%
viability, T/C [23]: 101%
viability, T/C [24]: 93.4%
viability, T/C [25]: 85.7%
viability, T/C [26]: 95.7%
viability, T/C [27]: 97.8%
viability, T/C [28]: 85.1%
viability, T/C [29]: 85.3%
viability, T/C [30]: 62.9%
viability, T/C [31]: 71.8%
viability, T/C [32]: 73.1%
viability, T/C [33]: 76%
viability, T/C [34]: 64.6%
viability, T/C [35]: 59.7%
viability, T/C [36]: 43.9%

CC(C)n1nc(-c2ccc3oc(N)nc3c2)c2c(N)ncnc21 + Cc1nc(NC(=O)N2CCCC2C(N)=O)sc1-c1ccnc(C(C)(C)C(F)(F)F)c1
IC50 (second compound 0.0316 µM): > 0.1 µM
IC50 (second compound 0.1 µM): 0.0984 µM
IC50 (second compound 0.316 µM): 0.0787 µM
IC50 (second compound 1 µM): 0.0644 µM
IC50 (second compound 3.16 µM): 0.0286 µM
IC50 (second compound 10 µM): 0.0155 µM
viability, T/C [1]: 110%
viability, T/C [2]: 104%
viability, T/C [3]: 112%
viability, T/C [4]: 99.1%
viability, T/C [5]: 91.3%
viability, T/C [6]: 53.3%
viability, T/C [7]: 103%
viability, T/C [8]: 101%
viability, T/C [9]: 101%
viability, T/C [10]: 110%
viability, T/C [11]: 97.8%
viability, T/C [12]: 48.9%
viability, T/C [13]: 108%
viability, T/C [14]: 101%
viability, T/C [15]: 105%
viability, T/C [16]: 100%
viability, T/C [17]: 89.2%
viability, T/C [18]: 40%
viability, T/C [19]: 104%
viability, T/C [20]: 105%
viability, T/C [21]: 97.2%
viability, T/C [22]: 91.3%
viability, T/C [23]: 77%
viability, T/C [24]: 34%
viability, T/C [25]: 87.3%
viability, T/C [26]: 94.6%
viability, T/C [27]: 89.5%
viability, T/C [28]: 72.9%
viability, T/C [29]: 48.5%
viability, T/C [30]: 30.4%
viability, T/C [31]: 67.5%
viability, T/C [32]: 68.4%
viability, T/C [33]: 68.1%
viability, T/C [34]: 52.8%
viability, T/C [35]: 42%
viability, T/C [36]: 25.7%

CC1(C)CCC(CN2CCN(c3ccc(C(=O)NS(=O)(=O)c4ccc(NCC5CCOCC5)c([N+](=O)[O-])c4)c(Oc4cnc5[nH]ccc5c4)c3)CC2)=C(c2ccc(Cl)cc2)C1 + Cc1nc(NC(=O)N2CCCC2C(N)=O)sc1-c1ccnc(C(C)(C)C(F)(F)F)c1
IC50 (second compound 0.0316 µM): 9.73 µM
IC50 (second compound 0.1 µM): 9.43 µM
IC50 (second compound 0.316 µM): > 10 µM
IC50 (second compound 1 µM): > 10 µM
IC50 (second compound 3.16 µM): 8.59 µM
IC50 (second compound 10 µM): 5.3 µM
viability, T/C [5]: 106%
viability, T/C [6]: 99.3%
viability, T/C [37]: 106%
viability, T/C [38]: 101%
viability, T/C [39]: 119%
viability, T/C [40]: 48.7%
viability, T/C [11]: 103%
viability, T/C [12]: 99.9%
viability, T/C [41]: 104%
viability, T/C [42]: 107%
viability, T/C [43]: 118%
viability, T/C [44]: 46.9%
viability, T/C [17]: 119%
viability, T/C [18]: 104%
viability, T/C [45]: 107%
viability, T/C [46]: 103%
viability, T/C [47]: 116%
viability, T/C [48]: 54.6%
viability, T/C [23]: 96.2%
viability, T/C [24]: 93.8%
viability, T/C [49]: 106%
viability, T/C [50]: 96.9%
viability, T/C [51]: 104%
viability, T/C [52]: 53.2%
viability, T/C [29]: 82.5%
viability, T/C [30]: 91.4%
viability, T/C [53]: 90.8%
viability, T/C [54]: 81.8%
viability, T/C [55]: 91.3%
viability, T/C [56]: 44.3%
viability, T/C [35]: 69.9%
viability, T/C [36]: 73.8%
viability, T/C [57]: 70.1%
viability, T/C [58]: 69.7%
viability, T/C [59]: 63.7%
viability, T/C [60]: 33.3%

CCCS(=O)(=O)Nc1ccc(F)c(C(=O)c2c[nH]c3ncc(-c4ccc(Cl)cc4)cc23)c1F + Cc1nc(NC(=O)N2CCCC2C(N)=O)sc1-c1ccnc(C(C)(C)C(F)(F)F)c1
IC50 (second compound 0.0316 µM): 5.14 µM
IC50 (second compound 0.1 µM): 4.63 µM
IC50 (second compound 0.316 µM): 3.75 µM
IC50 (second compound 1 µM): 1.99 µM
IC50 (second compound 3.16 µM): 0.525 µM
IC50 (second compound 10 µM): 0.0866 µM
viability, T/C [5]: 108%
viability, T/C [6]: 92.1%
viability, T/C [37]: 103%
viability, T/C [38]: 92.6%
viability, T/C [39]: 80.5%
viability, T/C [40]: 10.2%
viability, T/C [11]: 95.6%
viability, T/C [12]: 88.1%
viability, T/C [41]: 94.6%
viability, T/C [42]: 82.1%
viability, T/C [43]: 69.7%
viability, T/C [44]: 12.8%
viability, T/C [17]: 115%
viability, T/C [18]: 87.9%
viability, T/C [45]: 80.7%
viability, T/C [46]: 73.7%
viability, T/C [47]: 68.4%
viability, T/C [48]: 14.6%
viability, T/C [23]: 84.6%
viability, T/C [24]: 89.8%
viability, T/C [49]: 62%
viability, T/C [50]: 65.2%
viability, T/C [51]: 43.7%
viability, T/C [52]: 13.7%
viability, T/C [29]: 77.6%
viability, T/C [30]: 64.8%
viability, T/C [53]: 52%
viability, T/C [54]: 44.6%
viability, T/C [55]: 34.7%
viability, T/C [56]: 9.51%
viability, T/C [35]: 57%
viability, T/C [36]: 50.5%
viability, T/C [57]: 36.1%
viability, T/C [58]: 31.8%
viability, T/C [59]: 26.6%
viability, T/C [60]: 6.93%

CNC(=O)c1ccc(N2C(=S)N(c3ccc(C#N)c(C(F)(F)F)c3)C(=O)C2(C)C)cc1F + Cc1nc(NC(=O)N2CCCC2C(N)=O)sc1-c1ccnc(C(C)(C)C(F)(F)F)c1
IC50 (second compound 0.0316 µM): > 10 µM
IC50 (second compound 0.1 µM): > 10 µM
IC50 (second compound 0.316 µM): > 10 µM
IC50 (second compound 1 µM): > 10 µM
IC50 (second compound 3.16 µM): > 10 µM
IC50 (second compound 10 µM): > 10 µM
viability, T/C [5]: 104%
viability, T/C [6]: 94.4%
viability, T/C [37]: 101%
viability, T/C [38]: 102%
viability, T/C [39]: 107%
viability, T/C [40]: 113%
viability, T/C [11]: 96.9%
viability, T/C [12]: 100%
viability, T/C [41]: 109%
viability, T/C [42]: 98.4%
viability, T/C [43]: 104%
viability, T/C [44]: 104%
viability, T/C [17]: 107%
viability, T/C [18]: 101%
viability, T/C [45]: 117%
viability, T/C [46]: 99.1%
viability, T/C [47]: 113%
viability, T/C [48]: 93%
viability, T/C [23]: 100%
viability, T/C [24]: 96.3%
viability, T/C [49]: 105%
viability, T/C [50]: 101%
viability, T/C [51]: 104%
viability, T/C [52]: 95%
viability, T/C [29]: 91.1%
viability, T/C [30]: 89.4%
viability, T/C [53]: 83.9%
viability, T/C [54]: 77.7%
viability, T/C [55]: 88%
viability, T/C [56]: 85.5%
viability, T/C [35]: 74.3%
viability, T/C [36]: 65.3%
viability, T/C [57]: 69.4%
viability, T/C [58]: 67.8%
viability, T/C [59]: 73.8%
viability, T/C [60]: 70.1%
